Results published in paper PMC11864979, “First-in-class ultralong-target-residence-time p38α inhibitors as a mitosis-targeted therapy for colorectal cancer” (Nature Cancer, 2025).
Where two headings read alike, the source gives them in different places.

What was measured:
Test in all cases: selectivity profiling in a panel of 340 wild-type kinases (Reaction Biology Europe)
Assay type in all cases: binding
340 wild-type kinases [1] = target: T1, 340 wild-type kinases (Homo sapiens, UniProt Q15349)
T1 construct: purchased Reaction Biology Europe

340 wild-type kinases [2] = target: T2, 340 wild-type kinases (Homo sapiens, UniProt P05129)
T2 construct: purchased Reaction Biology Europe

340 wild-type kinases [3] = target: T3, 340 wild-type kinases (Homo sapiens, UniProt Q13188)
T3 construct: purchased Reaction Biology Europe
T3 sequence (Q13188 1-491): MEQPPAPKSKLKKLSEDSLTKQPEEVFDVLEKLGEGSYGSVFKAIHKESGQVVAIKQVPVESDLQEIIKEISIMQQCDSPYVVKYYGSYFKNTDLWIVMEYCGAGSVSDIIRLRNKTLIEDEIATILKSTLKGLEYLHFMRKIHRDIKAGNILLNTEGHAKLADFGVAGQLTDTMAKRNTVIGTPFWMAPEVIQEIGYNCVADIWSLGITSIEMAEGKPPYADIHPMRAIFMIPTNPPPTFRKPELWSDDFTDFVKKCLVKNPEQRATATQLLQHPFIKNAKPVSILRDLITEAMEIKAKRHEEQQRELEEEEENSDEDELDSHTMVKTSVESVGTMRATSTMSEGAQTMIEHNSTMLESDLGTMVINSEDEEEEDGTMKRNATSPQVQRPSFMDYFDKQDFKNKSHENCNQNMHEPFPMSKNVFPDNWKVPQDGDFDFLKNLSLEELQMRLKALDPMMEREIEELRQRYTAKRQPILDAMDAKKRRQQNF

340 wild-type kinases [4] = target: T4, 340 wild-type kinases (Homo sapiens, UniProt P53355)
T4 construct: purchased Reaction Biology Europe

340 wild-type kinases [5] = target: T5, 340 wild-type kinases (Homo sapiens, UniProt P36507)
T5 construct: purchased Reaction Biology Europe
T5 sequence (P36507 whole entry): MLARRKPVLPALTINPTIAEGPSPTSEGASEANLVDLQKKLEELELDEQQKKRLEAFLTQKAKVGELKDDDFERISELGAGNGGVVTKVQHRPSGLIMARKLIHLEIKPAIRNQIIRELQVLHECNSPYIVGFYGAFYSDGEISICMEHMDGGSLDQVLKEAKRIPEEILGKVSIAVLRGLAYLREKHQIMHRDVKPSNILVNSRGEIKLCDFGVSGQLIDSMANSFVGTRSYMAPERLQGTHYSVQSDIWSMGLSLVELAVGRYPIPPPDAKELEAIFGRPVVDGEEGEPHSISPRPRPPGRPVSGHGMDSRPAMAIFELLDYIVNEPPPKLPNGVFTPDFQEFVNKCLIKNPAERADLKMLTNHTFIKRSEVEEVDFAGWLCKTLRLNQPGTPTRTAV

340 wild-type kinases [6] = target: T6, 340 wild-type kinases (Homo sapiens, UniProt P17948)
T6 construct: purchased Reaction Biology Europe

340 wild-type kinases [7] = target: T7, 340 wild-type kinases (Homo sapiens, UniProt P51451)
T7 construct: purchased Reaction Biology Europe
T7 sequence (P51451 whole entry): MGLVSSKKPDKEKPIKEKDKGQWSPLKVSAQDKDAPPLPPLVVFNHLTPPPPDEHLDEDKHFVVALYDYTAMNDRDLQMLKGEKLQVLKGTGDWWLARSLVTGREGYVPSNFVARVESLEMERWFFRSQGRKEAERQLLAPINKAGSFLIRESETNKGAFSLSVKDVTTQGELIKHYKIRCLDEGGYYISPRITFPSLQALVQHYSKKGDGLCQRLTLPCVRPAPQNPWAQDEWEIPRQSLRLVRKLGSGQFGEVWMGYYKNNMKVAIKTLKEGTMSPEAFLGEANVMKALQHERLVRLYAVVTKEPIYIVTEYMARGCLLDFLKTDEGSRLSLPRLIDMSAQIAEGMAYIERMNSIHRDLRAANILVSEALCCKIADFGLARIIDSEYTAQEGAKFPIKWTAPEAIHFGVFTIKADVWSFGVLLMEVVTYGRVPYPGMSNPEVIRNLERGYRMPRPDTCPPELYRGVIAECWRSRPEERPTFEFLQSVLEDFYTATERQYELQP

340 wild-type kinases [8] = target: T8, 340 wild-type kinases (Homo sapiens, UniProt Q9BYP7)
T8 construct: purchased Reaction Biology Europe

340 wild-type kinases [9] = target: T9, 340 wild-type kinases (Homo sapiens, UniProt Q15303)
T9 construct: purchased Reaction Biology Europe
T9 sequence (Q15303 26-1308): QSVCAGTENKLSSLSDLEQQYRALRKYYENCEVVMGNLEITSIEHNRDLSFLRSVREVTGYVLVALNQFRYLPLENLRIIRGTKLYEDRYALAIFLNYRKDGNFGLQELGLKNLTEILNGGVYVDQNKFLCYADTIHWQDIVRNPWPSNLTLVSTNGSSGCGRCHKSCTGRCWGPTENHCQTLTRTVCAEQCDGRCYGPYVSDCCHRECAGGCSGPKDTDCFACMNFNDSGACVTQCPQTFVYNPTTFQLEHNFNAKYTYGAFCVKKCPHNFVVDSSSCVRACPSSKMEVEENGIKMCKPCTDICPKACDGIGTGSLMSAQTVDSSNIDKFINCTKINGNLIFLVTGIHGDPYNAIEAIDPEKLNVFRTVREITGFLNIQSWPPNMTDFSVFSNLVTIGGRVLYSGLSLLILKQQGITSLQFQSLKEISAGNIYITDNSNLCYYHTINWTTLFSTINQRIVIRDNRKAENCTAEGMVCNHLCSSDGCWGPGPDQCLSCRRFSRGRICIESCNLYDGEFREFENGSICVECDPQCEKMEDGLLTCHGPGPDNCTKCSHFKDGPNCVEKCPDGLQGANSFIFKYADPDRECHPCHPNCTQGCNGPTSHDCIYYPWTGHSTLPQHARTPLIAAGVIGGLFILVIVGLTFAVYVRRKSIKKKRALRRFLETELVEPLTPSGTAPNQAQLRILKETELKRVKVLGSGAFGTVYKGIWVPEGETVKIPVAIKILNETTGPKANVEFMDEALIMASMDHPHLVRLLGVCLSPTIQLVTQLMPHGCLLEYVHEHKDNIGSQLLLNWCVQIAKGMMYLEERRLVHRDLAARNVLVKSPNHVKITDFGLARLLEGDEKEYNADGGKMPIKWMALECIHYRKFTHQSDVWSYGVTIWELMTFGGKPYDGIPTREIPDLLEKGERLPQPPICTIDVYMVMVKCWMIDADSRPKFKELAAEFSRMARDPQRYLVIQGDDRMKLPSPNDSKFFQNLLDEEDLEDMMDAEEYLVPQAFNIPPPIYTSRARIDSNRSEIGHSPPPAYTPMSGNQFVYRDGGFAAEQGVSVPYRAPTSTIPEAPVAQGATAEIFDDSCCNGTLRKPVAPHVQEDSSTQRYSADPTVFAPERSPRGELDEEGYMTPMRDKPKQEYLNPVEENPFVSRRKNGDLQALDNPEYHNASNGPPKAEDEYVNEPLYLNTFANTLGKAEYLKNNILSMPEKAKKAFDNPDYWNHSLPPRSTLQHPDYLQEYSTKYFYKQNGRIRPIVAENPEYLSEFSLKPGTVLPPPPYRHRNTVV

340 wild-type kinases [10] = target: T10, 340 wild-type kinases (Homo sapiens, UniProt P48730)
T10 construct: purchased Reaction Biology Europe

340 wild-type kinases [11] = target: T11, 340 wild-type kinases (Homo sapiens, UniProt Q9H2X6)
T11 construct: purchased Reaction Biology Europe
T11 sequence (Q9H2X6 whole entry): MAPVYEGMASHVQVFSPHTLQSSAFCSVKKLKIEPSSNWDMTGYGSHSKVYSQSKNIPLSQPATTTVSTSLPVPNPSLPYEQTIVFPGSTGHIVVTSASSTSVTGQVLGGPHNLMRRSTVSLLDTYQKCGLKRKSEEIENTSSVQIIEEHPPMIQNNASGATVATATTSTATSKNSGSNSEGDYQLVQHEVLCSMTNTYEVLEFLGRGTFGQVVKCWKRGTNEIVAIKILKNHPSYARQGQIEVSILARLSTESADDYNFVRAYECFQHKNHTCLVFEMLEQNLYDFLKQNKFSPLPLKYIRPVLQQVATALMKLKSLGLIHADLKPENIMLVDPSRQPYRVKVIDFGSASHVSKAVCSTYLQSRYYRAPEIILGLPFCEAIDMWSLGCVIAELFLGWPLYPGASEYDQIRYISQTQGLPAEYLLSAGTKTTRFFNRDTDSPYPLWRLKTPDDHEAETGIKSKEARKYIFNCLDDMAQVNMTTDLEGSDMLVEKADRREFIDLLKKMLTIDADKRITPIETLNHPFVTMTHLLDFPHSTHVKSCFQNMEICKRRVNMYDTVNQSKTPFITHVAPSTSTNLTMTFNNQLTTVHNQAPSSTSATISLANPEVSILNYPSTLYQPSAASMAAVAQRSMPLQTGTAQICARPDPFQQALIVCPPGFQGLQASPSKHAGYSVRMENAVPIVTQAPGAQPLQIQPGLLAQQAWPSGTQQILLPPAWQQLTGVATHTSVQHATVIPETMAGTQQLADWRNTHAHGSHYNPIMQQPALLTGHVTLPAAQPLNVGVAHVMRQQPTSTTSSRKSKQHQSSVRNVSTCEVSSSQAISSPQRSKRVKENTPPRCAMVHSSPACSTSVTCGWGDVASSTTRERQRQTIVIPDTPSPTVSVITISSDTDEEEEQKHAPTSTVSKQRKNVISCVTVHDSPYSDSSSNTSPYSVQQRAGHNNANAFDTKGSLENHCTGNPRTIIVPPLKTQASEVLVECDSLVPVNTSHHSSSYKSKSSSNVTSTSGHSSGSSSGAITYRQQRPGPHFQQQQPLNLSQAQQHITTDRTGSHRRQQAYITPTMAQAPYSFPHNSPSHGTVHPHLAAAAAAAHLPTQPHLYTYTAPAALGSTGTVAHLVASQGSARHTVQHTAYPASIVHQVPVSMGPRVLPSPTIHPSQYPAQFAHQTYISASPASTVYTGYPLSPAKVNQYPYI

340 wild-type kinases [12] = target: T12, 340 wild-type kinases (Homo sapiens, UniProt P00519)
T12 construct: purchased Reaction Biology Europe
T12 sequence (P00519 whole entry): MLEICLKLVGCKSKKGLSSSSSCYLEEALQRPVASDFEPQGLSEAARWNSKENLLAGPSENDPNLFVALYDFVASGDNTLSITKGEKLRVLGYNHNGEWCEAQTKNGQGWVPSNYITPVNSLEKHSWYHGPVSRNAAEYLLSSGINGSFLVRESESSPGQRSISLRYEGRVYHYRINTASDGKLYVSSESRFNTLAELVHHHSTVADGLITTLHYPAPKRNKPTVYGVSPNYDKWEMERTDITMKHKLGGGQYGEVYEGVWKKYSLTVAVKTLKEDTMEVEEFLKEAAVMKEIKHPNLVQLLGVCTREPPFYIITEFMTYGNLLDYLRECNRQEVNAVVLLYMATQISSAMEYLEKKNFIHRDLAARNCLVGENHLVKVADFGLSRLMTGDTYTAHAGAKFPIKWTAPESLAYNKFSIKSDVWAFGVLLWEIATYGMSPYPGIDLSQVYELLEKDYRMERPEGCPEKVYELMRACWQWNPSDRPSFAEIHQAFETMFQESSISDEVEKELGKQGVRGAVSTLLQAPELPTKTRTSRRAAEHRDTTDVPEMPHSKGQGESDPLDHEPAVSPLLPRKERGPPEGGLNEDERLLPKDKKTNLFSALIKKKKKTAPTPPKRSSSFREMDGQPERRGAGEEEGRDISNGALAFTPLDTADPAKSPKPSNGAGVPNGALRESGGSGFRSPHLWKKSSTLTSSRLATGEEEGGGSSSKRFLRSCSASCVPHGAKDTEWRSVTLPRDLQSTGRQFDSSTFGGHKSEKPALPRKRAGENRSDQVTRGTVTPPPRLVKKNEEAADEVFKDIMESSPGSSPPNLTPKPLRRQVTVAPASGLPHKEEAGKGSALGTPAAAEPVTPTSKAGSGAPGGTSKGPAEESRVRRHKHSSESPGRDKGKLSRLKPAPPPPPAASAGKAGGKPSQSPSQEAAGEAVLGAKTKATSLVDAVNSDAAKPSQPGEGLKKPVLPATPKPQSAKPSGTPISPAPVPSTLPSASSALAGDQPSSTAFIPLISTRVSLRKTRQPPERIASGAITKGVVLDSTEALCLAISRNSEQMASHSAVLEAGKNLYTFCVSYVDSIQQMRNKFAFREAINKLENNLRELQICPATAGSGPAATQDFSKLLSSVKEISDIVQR

340 wild-type kinases [13] = target: T13, 340 wild-type kinases (Homo sapiens, UniProt P10721)
T13 construct: purchased Reaction Biology Europe

340 wild-type kinases [14] = target: T14, 340 wild-type kinases (Homo sapiens, UniProt Q96RR4)
T14 construct: purchased Reaction Biology Europe
T14 sequence (Q96RR4 whole entry): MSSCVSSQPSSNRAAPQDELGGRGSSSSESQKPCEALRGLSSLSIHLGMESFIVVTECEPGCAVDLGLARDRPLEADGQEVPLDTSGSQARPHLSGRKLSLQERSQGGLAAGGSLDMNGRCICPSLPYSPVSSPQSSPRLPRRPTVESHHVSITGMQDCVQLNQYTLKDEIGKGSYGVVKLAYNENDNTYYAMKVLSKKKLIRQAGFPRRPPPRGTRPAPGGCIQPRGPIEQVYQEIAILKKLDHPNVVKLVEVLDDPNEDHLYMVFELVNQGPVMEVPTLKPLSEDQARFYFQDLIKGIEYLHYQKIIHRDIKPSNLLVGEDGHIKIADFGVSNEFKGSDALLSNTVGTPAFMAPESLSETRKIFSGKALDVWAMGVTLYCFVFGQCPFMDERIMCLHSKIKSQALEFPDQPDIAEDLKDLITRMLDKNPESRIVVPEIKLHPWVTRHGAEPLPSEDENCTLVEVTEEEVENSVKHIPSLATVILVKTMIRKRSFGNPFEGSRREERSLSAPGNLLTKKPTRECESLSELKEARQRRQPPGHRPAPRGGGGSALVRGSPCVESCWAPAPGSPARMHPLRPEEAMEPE

340 wild-type kinases [15] = target: T15, 340 wild-type kinases (Homo sapiens, UniProt P51956)
T15 construct: purchased Reaction Biology Europe
T15 sequence (P51956 1-506): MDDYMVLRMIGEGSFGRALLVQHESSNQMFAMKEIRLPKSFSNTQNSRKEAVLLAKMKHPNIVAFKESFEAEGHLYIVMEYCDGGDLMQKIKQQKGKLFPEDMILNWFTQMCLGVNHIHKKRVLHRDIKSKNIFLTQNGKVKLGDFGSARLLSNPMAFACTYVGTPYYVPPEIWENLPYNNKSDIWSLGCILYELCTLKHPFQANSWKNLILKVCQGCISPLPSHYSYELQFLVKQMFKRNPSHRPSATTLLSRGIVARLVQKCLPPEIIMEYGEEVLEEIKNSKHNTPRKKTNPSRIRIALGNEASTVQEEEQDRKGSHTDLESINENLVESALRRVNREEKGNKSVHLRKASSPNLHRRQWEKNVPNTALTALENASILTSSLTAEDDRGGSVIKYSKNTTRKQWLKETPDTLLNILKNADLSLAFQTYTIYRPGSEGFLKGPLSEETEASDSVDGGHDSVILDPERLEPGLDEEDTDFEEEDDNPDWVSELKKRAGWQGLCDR

CNC(=O)c1ccc2c(c1)C(=O)c1ccc(Nc3ccc(F)c(NC(=O)C4CC4)c3)cc1CC2 [Compound 2015]
remaining activity at 0.2 µM (340 wild-type kinases [1]; 0.2 µM 2015, read-out: RPS6KA2 residual activity): 84.7%
remaining activity at 1 µM (340 wild-type kinases [1]; 1 µM 2015, read-out: RPS6KA2 residual activity): 91%
remaining activity at 0.2 µM (340 wild-type kinases [1]; RPS6KA2, 0.2 µM, read-out: residual activity): 84.7%
remaining activity at 1 µM (340 wild-type kinases [1]; RPS6KA2, 1 µM, read-out: residual activity): 91%
remaining activity at 0.2 µM (340 wild-type kinases [2]; 0.2 µM 2015, read-out: PKCgamma residual activity): 109%
remaining activity at 1 µM (340 wild-type kinases [2]; 1 µM 2015, read-out: PKCgamma residual activity): 86.6%
remaining activity at 0.2 µM (340 wild-type kinases [2]; PKCgamma, 0.2 µM, read-out: residual activity): 109%
remaining activity at 1 µM (340 wild-type kinases [2]; PKCgamma, 1 µM, read-out: residual activity): 86.6%
remaining activity at 0.2 µM (340 wild-type kinases [3]; 0.2 µM 2015, read-out: MST2 residual activity): 115%
remaining activity at 1 µM (340 wild-type kinases [3]; 1 µM 2015, read-out: MST2 residual activity): 106%
remaining activity at 0.2 µM (340 wild-type kinases [3]; MST2, 0.2 µM, read-out: residual activity): 115%
remaining activity at 1 µM (340 wild-type kinases [3]; MST2, 1 µM, read-out: residual activity): 106%
remaining activity at 0.2 µM (340 wild-type kinases [4]; 0.2 µM 2015, read-out: DAPK1 residual activity): 128%
remaining activity at 1 µM (340 wild-type kinases [4]; 1 µM 2015, read-out: DAPK1 residual activity): 135%
remaining activity at 0.2 µM (340 wild-type kinases [4]; DAPK1, 0.2 µM, read-out: residual activity): 128%
remaining activity at 1 µM (340 wild-type kinases [4]; DAPK1, 1 µM, read-out: residual activity): 135%
remaining activity at 0.2 µM (340 wild-type kinases [5]; 0.2 µM 2015, read-out: MEK2 residual activity): 103%
remaining activity at 1 µM (340 wild-type kinases [5]; 1 µM 2015, read-out: MEK2 residual activity): 69.7%
remaining activity at 0.2 µM (340 wild-type kinases [5]; MEK2, 0.2 µM, read-out: residual activity): 103%
remaining activity at 1 µM (340 wild-type kinases [5]; MEK2, 1 µM, read-out: residual activity): 69.7%
remaining activity at 0.2 µM (340 wild-type kinases [6]; 0.2 µM 2015, read-out: VEGFR1 residual activity): 113%
remaining activity at 1 µM (340 wild-type kinases [6]; 1 µM 2015, read-out: VEGFR1 residual activity): 116%
remaining activity at 0.2 µM (340 wild-type kinases [6]; VEGFR1, 0.2 µM, read-out: residual activity): 113%
remaining activity at 1 µM (340 wild-type kinases [6]; VEGFR1, 1 µM, read-out: residual activity): 116%
remaining activity at 0.2 µM (340 wild-type kinases [7]; 0.2 µM 2015, read-out: BLK residual activity): 107%
remaining activity at 1 µM (340 wild-type kinases [7]; 1 µM 2015, read-out: BLK residual activity): 104%
remaining activity at 0.2 µM (340 wild-type kinases [7]; BLK, 0.2 µM, read-out: residual activity): 107%
remaining activity at 1 µM (340 wild-type kinases [7]; BLK, 1 µM, read-out: residual activity): 104%
remaining activity at 0.2 µM (340 wild-type kinases [8]; 0.2 µM 2015, read-out: WNK3 residual activity): 121%
remaining activity at 1 µM (340 wild-type kinases [8]; 1 µM 2015, read-out: WNK3 residual activity): 113%
remaining activity at 0.2 µM (340 wild-type kinases [8]; WNK3, 0.2 µM, read-out: residual activity): 121%
remaining activity at 1 µM (340 wild-type kinases [8]; WNK3, 1 µM, read-out: residual activity): 113%
remaining activity at 0.2 µM (340 wild-type kinases [9]; 0.2 µM 2015, read-out: ERBB4 residual activity): 120%
remaining activity at 1 µM (340 wild-type kinases [9]; 1 µM 2015, read-out: ERBB4 residual activity): 101%
remaining activity at 0.2 µM (340 wild-type kinases [9]; ERBB4, 0.2 µM, read-out: residual activity): 120%
remaining activity at 1 µM (340 wild-type kinases [9]; ERBB4, 1 µM, read-out: residual activity): 101%
remaining activity at 0.2 µM (340 wild-type kinases [10]; 0.2 µM 2015, read-out: CK1delta residual activity): 117%
remaining activity at 1 µM (340 wild-type kinases [10]; 1 µM 2015, read-out: CK1delta residual activity): 111%
remaining activity at 0.2 µM (340 wild-type kinases [10]; CK1delta, 0.2 µM, read-out: residual activity): 117%
remaining activity at 1 µM (340 wild-type kinases [10]; CK1delta, 1 µM, read-out: residual activity): 111%
remaining activity at 0.2 µM (340 wild-type kinases [11]; 0.2 µM 2015, read-out: HIPK2 residual activity): 93.7%
remaining activity at 1 µM (340 wild-type kinases [11]; 1 µM 2015, read-out: HIPK2 residual activity): 97.9%
remaining activity at 0.2 µM (340 wild-type kinases [11]; HIPK2, 0.2 µM, read-out: residual activity): 93.7%
remaining activity at 1 µM (340 wild-type kinases [11]; HIPK2, 1 µM, read-out: residual activity): 97.9%
remaining activity at 0.2 µM (340 wild-type kinases [12]; 0.2 µM 2015, read-out: ABL1 residual activity): 108%
remaining activity at 1 µM (340 wild-type kinases [12]; 1 µM 2015, read-out: ABL1 residual activity): 99.6%
remaining activity at 0.2 µM (340 wild-type kinases [12]; ABL1, 0.2 µM, read-out: residual activity): 108%
remaining activity at 1 µM (340 wild-type kinases [12]; ABL1, 1 µM, read-out: residual activity): 99.6%
remaining activity at 0.2 µM (340 wild-type kinases [13]; 0.2 µM 2015, read-out: KIT residual activity): 114%
remaining activity at 1 µM (340 wild-type kinases [13]; 1 µM 2015, read-out: KIT residual activity): 109%
remaining activity at 0.2 µM (340 wild-type kinases [13]; KIT, 0.2 µM, read-out: residual activity): 114%
remaining activity at 1 µM (340 wild-type kinases [13]; KIT, 1 µM, read-out: residual activity): 109%
remaining activity at 0.2 µM (340 wild-type kinases [14]; 0.2 µM 2015, read-out: CAMKK2 residual activity): 96%
remaining activity at 1 µM (340 wild-type kinases [14]; 1 µM 2015, read-out: CAMKK2 residual activity): 96.6%
remaining activity at 0.2 µM (340 wild-type kinases [14]; CAMKK2, 0.2 µM, read-out: residual activity): 96%
remaining activity at 1 µM (340 wild-type kinases [14]; CAMKK2, 1 µM, read-out: residual activity): 96.6%
remaining activity at 0.2 µM (340 wild-type kinases [15]; 0.2 µM 2015, read-out: NEK3 residual activity): 98.3%
remaining activity at 1 µM (340 wild-type kinases [15]; 1 µM 2015, read-out: NEK3 residual activity): 88.8%
remaining activity at 0.2 µM (340 wild-type kinases [15]; NEK3, 0.2 µM, read-out: residual activity): 98.3%
remaining activity at 1 µM (340 wild-type kinases [15]; NEK3, 1 µM, read-out: residual activity): 88.8%
